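Test compounds were applied to cells in 96-well plates for 48 hours at 5 doses. GI50 = concentration required for 50% inhibition of growth. Definition used: TGI = concentration required for complete inhibition of growth.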
How the values were obtained:
Experiment in all cases: inhibition of tumour cell growth, NCI panel, 48 h
RXF 393 renal = test system: RXF 393 renal
BT-549 breast = test system: BT-549 breast
HT29 colon = test system: HT29 colon
HL-60(TB) leukemia = test system: HL-60(TB) leukemia
OVCAR-8 ovarian = test system: OVCAR-8 ovarian
OVCAR-3 ovarian = test system: OVCAR-3 ovarian
SNB-19 CNS = test system: SNB-19 CNS
SW-620 colon = test system: SW-620 colon
MOLT-4 leukemia = test system: MOLT-4 leukemia
SR leukemia = test system: SR leukemia

SMILES	GI50 (RXF 393 renal)	TGI (RXF 393 renal)	GI50 (BT-549 breast)	TGI (BT-549 breast)	GI50 (HT29 colon)	TGI (HT29 colon)	GI50 (HL-60(TB) leukemia)	TGI (HL-60(TB) leukemia)	GI50 (OVCAR-8 ovarian)	TGI (OVCAR-8 ovarian)	GI50 (OVCAR-3 ovarian)	TGI (OVCAR-3 ovarian)	GI50 (SNB-19 CNS)	TGI (SNB-19 CNS)	GI50 (SW-620 colon)	TGI (SW-620 colon)	GI50 (MOLT-4 leukemia)	TGI (MOLT-4 leukemia)	GI50 (SR leukemia)	TGI (SR leukemia)
NC(CSC(c1ccccc1)(c1ccccc1)c1ccc(Br)cc1)C(=O)O (stereo unspecified)	0.103 µM	> 35.6 µM	0.971 µM	> 57 µM	0.399 µM	> 54.9 µM	0.412 µM	75.3 µM	0.321 µM	> 51.7 µM	0.0942 µM	0.412 µM	0.296 µM	> 76.6 µM	0.1 µM	27.7 µM	0.651 µM	> 82.1 µM	1.33 µM	> 38.7 µM
NC1=C(O)/C(=N/NS(=O)(=O)c2ccccc2)C(c2cccc(Cl)c2)O1 (stereo unspecified)	–	29.6 µM	–	> 100 µM	–	55 µM	–	12.5 µM	–	> 67.8 µM	–	55.5 µM	–	> 100 µM	–	35.8 µM	–	19.1 µM	–	9.15 µM
O=c1c(Br)ccc(Br)cc1Br	1.65 µM	3.06 µM	2.08 µM	3.98 µM	1.77 µM	4.45 µM	0.662 µM	2.67 µM	2.75 µM	8.78 µM	0.926 µM	2.18 µM	11.7 µM	25.2 µM	0.268 µM	0.673 µM	0.41 µM	1.86 µM	0.367 µM	1.48 µM
Nc1c2c(c(O)c3c1=C(CO)C=N3)=NCCS2=O (stereo unspecified)	3.84 µM	17.5 µM	1.69 µM	3.1 µM	1.78 µM	4.46 µM	1.94 µM	4.5 µM	1.99 µM	4.78 µM	0.28 µM	0.986 µM	1.59 µM	3.07 µM	2.1 µM	4.22 µM	1.24 µM	4.22 µM	1.76 µM	9.33 µM
O=P1(NCCCl)OCCC(OO)N1CCCl (stereo unspecified)	–	32.4 µM	–	> 100 µM	–	> 81.9 µM	–	> 51.9 µM	–	> 100 µM	–	53 µM	–	> 100 µM	–	30.5 µM	–	> 83.4 µM	–	> 100 µM
COc1ccc(-n2cc(-c3ccc(F)cc3)[nH]c2=O)cc1OC	> 100 µM	> 100 µM	> 100 µM	> 100 µM	> 100 µM	> 100 µM	> 100 µM	> 100 µM	82.1 µM	> 100 µM	> 100 µM	> 100 µM	> 100 µM	> 100 µM	> 100 µM	> 100 µM	> 100 µM	> 100 µM	> 100 µM	> 100 µM
COc1ccc2c(c1)cn1c3ccc(OC)cc3[nH]c(=O)c21	0.0257 µM	1.79 µM	0.0407 µM	1.17 µM	< 0.0155 µM	0.281 µM	< 0.0113 µM	< 0.0219 µM	< 0.0214 µM	1.46 µM	< 0.0152 µM	< 0.024 µM	< 0.0405 µM	7.36 µM	< 0.0147 µM	1.36 µM	< 0.0183 µM	1.04 µM	< 0.01 µM	1.1 µM
COc1ccccc1NC(=O)C(=O)C(C#N)CC(C)(C)C=O (stereo unspecified)	–	> 100 µM	–	> 100 µM	–	> 100 µM	–	> 100 µM	–	> 100 µM	–	> 100 µM	–	–	–	> 100 µM	–	> 100 µM	–	> 100 µM
COc1cc(-c2nc3cc(Cl)c(Cl)cc3[nH]2)ccc1OCC(=O)N=Nc1c(O)[nH]c2ccccc12	0.678 µM	2.1 µM	0.822 µM	2.29 µM	0.352 µM	4.72 µM	0.392 µM	2.22 µM	0.327 µM	1.59 µM	0.409 µM	1.43 µM	0.657 µM	5.35 µM	0.355 µM	1.43 µM	–	–	0.301 µM	> 100 µM
C=C(C=O)[C@@H]1CC=C(C=O)CC1	3.72 µM	> 100 µM	3.26 µM	> 30.5 µM	3.54 µM	> 100 µM	2.48 µM	> 100 µM	3.69 µM	> 100 µM	–	–	17.4 µM	71.2 µM	–	–	3.69 µM	> 100 µM	5.48 µM	> 100 µM
CN(Cc1cccc(Cl)c1)c1ccc(CO)c(Cl)c1	8.55 µM	23.4 µM	14.6 µM	34.5 µM	9.93 µM	31.2 µM	13.9 µM	45 µM	15.8 µM	53.8 µM	3.46 µM	14 µM	27.3 µM	> 100 µM	5.93 µM	> 42.9 µM	20 µM	56.6 µM	22.4 µM	72.8 µM
CC(=O)O[C@H]1CC[C@@]2(C)[C@@H](CC[C@@H]3[C@@H]2CC(=O)[C@@]2(C)[C@H]3C[C@@H]3CC(C)=CC(=O)[C@@H]32)C1	–	86.7 µM	–	71.2 µM	–	> 100 µM	–	27.8 µM	–	> 100 µM	–	> 100 µM	–	> 100 µM	–	> 100 µM	–	–	–	> 100 µM
O=C1COCCN1c1ccc(NCc2cn(Cc3ccc(F)cc3)c3ccccc23)cc1	0.911 µM	5.76 µM	3.47 µM	22.4 µM	1.67 µM	> 100 µM	4.8 µM	24.3 µM	4.3 µM	> 86.8 µM	0.313 µM	2.96 µM	19.4 µM	> 100 µM	0.562 µM	> 52.6 µM	11.6 µM	> 68.9 µM	3.84 µM	> 100 µM
C/C(=N\O)c1ccc(Nc2cc(-c3ccccc3)nc3c(O)cccc23)cc1	7.47 µM	24.7 µM	23.3 µM	86.6 µM	19.8 µM	48.1 µM	0.585 µM	96.6 µM	6.99 µM	29.2 µM	5.49 µM	31.7 µM	–	–	13.9 µM	34.2 µM	–	–	1.27 µM	24.1 µM
Cc1nc(N(C)C)nc(-c2cccc(-c3ccn(CCN(C)C)n3)c2)c1C	> 20 µM	> 20 µM	> 20 µM	> 20 µM	> 20 µM	> 20 µM	> 20 µM	> 20 µM	> 20 µM	> 20 µM	> 20 µM	> 20 µM	–	–	> 20 µM	> 20 µM	> 20 µM	> 20 µM	> 20 µM	> 20 µM

From PubChem BioAssay (NCI)
